# Experimental data from patent EP3991729A1, “USE OF AMLEXANOX IN PREPARING ANTI-HEPATITIS VIRUS DRUG” (Marine Biomedical Research Institute Of Qingdao Co., Ltd., priority 2019, dated 2020).
# Tests used:
# hepatitis B virus [1] = experiment: HBV transgenic mouse model, serum HBsAg by ELISA; type: in vivo, male C57BL/6-HBV transgenic mice; settings: 48 mg/kg intragastric once daily for 35 days, Figure 18
# Method: Ten male C57BL/6-HBV transgenic mice (provided by Beijing Vitalstar Biotechnology Co., Ltd.) aged six weeks were randomly divided into two groups (control group, n=5; administration group, n=5).
# Route of administration: Intragastric administration, 1mL sterile syringe was used for administration.
# Dosing frequency: The drug was administered once daily for 35 consecutive days, with free access to food and water.
# Dose-volume: 10 mL/kg. The dose-volume for each animal was determined based on the most recent body weight before administration.
# The serum was separated and diluted 5000 times with PBS, respectively. The ELISA kit detected the concentration of HBV surface antigen (HBsAg). The OD value at 450 nm was measured on a microplate reader.
# The inhibition rate was calculated according to the following formula: Inhibition rate = [(OD450controlwell−OD450dosewell)/OD450 control; well] × 100% [formula]
# hepatitis B virus [2] = experiment: HBV genomic DNA replication in HepG2 cells transfected with linear HBV genomic DNA, quantitative PCR of circular HBV DNA; type: cell-based, hepatitis B virus (genotype B); settings: 10µM, HepG2, 96 hours, Figure 1
# Method: After 96 hours, cells were divided into two groups, with genomic DNA extracted from one. From the other, free DNA was extracted using HIRT extraction, and linear DNA was removed using DNA exonuclease (NEB). Circular HBV DNA and genomic GAPDH were detected by quantitative PCR. The highest value of circular HBV DNA was defined as 100% (n=5).
# Huh7 cells = experiment: Cytotoxicity test, MTT assay; type: cell-based
# Method: (§1) […]. Various cells in the logarithmic growth phase were seeded in 96-well plates at 6,000 cells/well and cultured for 24h. […]. The dosage of DMSO in the solvent control group was based on the maximum dose of 0.1% used in the test group, with four duplicate wells for each concentration. Cells were treated with the drug for 72h and then added with 20µL 5 mg/mL MTT, cultured at 37°C for 4h, after added 100 µ L triple solution (10% SDS, 5% isobutanol, 12 mM hydrochloric acid), 96-well cell culture plate was placed in an incubator containing 5% CO2 at 37 ± 1°C overnight. OD value at 570nm was measured on a microplate reader.
# (§2) The inhibition rate of tumor cell growth was calculated according to the following formula: Inhibition rate(%) = [(OD570controlwell−OD570dosewell)/OD570controlwell] × 100. [formula]
# THP-1 cells = experiment: Cytotoxicity test, MTT assay; type: cell-based; settings: Homo sapiens, THP-1, 72 h, read-out: Inhibition (%) THP -1
# Method: as §1, §2
# Hela cells = experiment: Cytotoxicity test, MTT assay; type: cell-based; settings: Homo sapiens, 72 h, read-out: Inhibition (%) Hel a
# Method: as §1, §2
# MCF7 cells = experiment: Cytotoxicity test, MTT assay; type: cell-based
# Method: as §1, §2
# A549 cells = experiment: Cytotoxicity test, MTT assay; type: cell-based; settings: Homo sapiens, A549, 72 h, read-out: Inhibition (%) A549
# Method: as §1, §2
# MKN45 cells = experiment: Cytotoxicity test, MTT assay; type: cell-based
# Method: as §1, §2
# HepG2 cells = experiment: Cytotoxicity test, MTT assay; type: cell-based; settings: Homo sapiens, HepG2, 72 h, read-out: Inhibition (%) Hep G2
# Method: as §1, §2
# 293 cells = experiment: Cytotoxicity test, MTT assay; type: cell-based; settings: Homo sapiens, HEK293, 72 h, read-out: Inhibition (%) 293
# Method: as §1, §2
# HCT-116 cells = experiment: Cytotoxicity test, MTT assay; type: cell-based
# Method: as §1, §2
# [3] = Homo sapiens, Huh-7, 72 h, read-out: Inhibition (%) Hu h7
# [4] = Homo sapiens, MCF7, 72 h, read-out: Inhibition (%) MC F7
# [5] = Homo sapiens, MKN-45, 72 h, read-out: Inhibition (%) MKN 45
# [6] = Homo sapiens, HCT-116, 72 h, read-out: Inhibition (%) HCT-116
compound,measurement,setting,value
"CC(C)c1ccc2oc3nc(N)c(C(=O)O)cc3c(=O)c2c1 [amlexanox, Amlexanox]",HBV surface antigen (HBsAg) in serum,hepatitis B virus [1],could inhibit HBsAg level in transgenic mice
same,Circular HBV DNA (hepatitis B virus genomic DNA replication),hepatitis B virus [2],inhibits hepatitis B virus genomic DNA replication in cell models with effects comparable to existing clinical drugs
same,inhibition at 3.125 µM,Huh7 cells; [3],0%
same,inhibition at 6.25 µM,Huh7 cells; [3],7.28%
same,inhibition at 12.5 µM,Huh7 cells; [3],15%
same,inhibition at 25 µM,Huh7 cells; [3],18.1%
same,inhibition at 50 µM,Huh7 cells; [3],26.2%
same,inhibition at 100 µM,Huh7 cells; [3],35.2%
same,cytotoxicity,"Huh7 cells; Huh7, 100 µM, 72h",some cytotoxicity
same,inhibition at 3.125 µM,THP-1 cells,0%
same,inhibition at 6.25 µM,THP-1 cells,0%
same,inhibition at 12.5 µM,THP-1 cells,0%
same,inhibition at 25 µM,THP-1 cells,0%
same,inhibition at 50 µM,THP-1 cells,0%
same,inhibition at 100 µM,THP-1 cells,7.44%
same,inhibition at 3.125 µM,Hela cells,3.08%
same,inhibition at 6.25 µM,Hela cells,2.48%
same,inhibition at 12.5 µM,Hela cells,1.7%
same,inhibition at 25 µM,Hela cells,0.79%
same,inhibition at 50 µM,Hela cells,1.89%
same,inhibition at 100 µM,Hela cells,6.15%
same,inhibition at 3.125 µM,MCF7 cells; [4],1.03%
same,inhibition at 6.25 µM,MCF7 cells; [4],0.86%
same,inhibition at 12.5 µM,MCF7 cells; [4],1.22%
same,inhibition at 25 µM,MCF7 cells; [4],3.8%
same,inhibition at 50 µM,MCF7 cells; [4],16.4%
same,inhibition at 100 µM,MCF7 cells; [4],43.5%
same,cytotoxicity,"MCF7 cells; MCF7, 100 µM, 72h",some cytotoxicity
same,inhibition at 3.125 µM,A549 cells,3.55%
same,inhibition at 6.25 µM,A549 cells,1.31%
same,inhibition at 12.5 µM,A549 cells,0.65%
same,inhibition at 25 µM,A549 cells,0%
same,inhibition at 50 µM,A549 cells,1.08%
same,inhibition at 100 µM,A549 cells,4.54%
same,inhibition at 3.125 µM,MKN45 cells; [5],0%
same,inhibition at 6.25 µM,MKN45 cells; [5],3.61%
same,inhibition at 12.5 µM,MKN45 cells; [5],4.9%
same,inhibition at 25 µM,MKN45 cells; [5],9.22%
same,inhibition at 50 µM,MKN45 cells; [5],13.9%
same,inhibition at 100 µM,MKN45 cells; [5],30.9%
same,cytotoxicity,"MKN45 cells; MKN45, 100 µM, 72h",some cytotoxicity
same,inhibition at 3.125 µM,HepG2 cells,0%
same,inhibition at 6.25 µM,HepG2 cells,0%
same,inhibition at 12.5 µM,HepG2 cells,0%
same,inhibition at 25 µM,HepG2 cells,0%
same,inhibition at 50 µM,HepG2 cells,0%
same,inhibition at 100 µM,HepG2 cells,4.8%
same,inhibition at 3.125 µM,293 cells,0%
same,inhibition at 6.25 µM,293 cells,0%
same,inhibition at 12.5 µM,293 cells,0%
same,inhibition at 25 µM,293 cells,0%
same,inhibition at 50 µM,293 cells,0%
same,inhibition at 100 µM,293 cells,11.3%
same,cytotoxicity,"HCT-116 cells; HCT-116, 100 µM, 72h",some cytotoxicity
same,inhibition at 3.125 µM,HCT-116 cells; [6],0%
same,inhibition at 6.25 µM,HCT-116 cells; [6],0%
same,inhibition at 12.5 µM,HCT-116 cells; [6],0.11%
same,inhibition at 25 µM,HCT-116 cells; [6],1.17%
same,inhibition at 50 µM,HCT-116 cells; [6],6.41%
same,inhibition at 100 µM,HCT-116 cells; [6],31.1%
